Measurements reported in ChEMBL document CHEMBL1201862, “PubChem BioAssay data set” (2004).
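Test compounds were applied to cells in 96-well plates for 48 hours at 5 doses. At the GI50, growth is halved.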 Active and inactive are the calls of the source. No stated cut-off is given here; in the data, active = GI50 up to about 1.1 µM and inactive = higher.

Tests used:
Assay in all cases: DTP human tumour cell line panel, 48 h
SF-268 = tested on: SF-268
SK-MEL-5 = tested on: SK-MEL-5
MCF7 = tested on: MCF7
CCRF-CEM = tested on: CCRF-CEM
COLO 205 = tested on: COLO 205
EKVX = tested on: EKVX
NCI-H522 = tested on: NCI-H522
MDA-MB-231 = tested on: MDA-MB-231
SF-539 = tested on: SF-539
SNB-75 = tested on: SNB-75
UACC-257 = tested on: UACC-257
PC-3 = tested on: PC-3
SK-MEL-2 = tested on: SK-MEL-2
MDA-MB-435 = tested on: MDA-MB-435
A498 = tested on: A498
U-251 = tested on: U-251
MOLT-4 = tested on: MOLT-4
Malme-3M = tested on: Malme-3M
SF-295 = tested on: SF-295
SK-MEL-28 = tested on: SK-MEL-28

Compound | GI50 (SF-268) | GI50 (SK-MEL-5) | GI50 (MCF7) | GI50 (CCRF-CEM) | GI50 (COLO 205) | GI50 (EKVX) | GI50 (NCI-H522) | GI50 (MDA-MB-231) | GI50 (SF-539) | GI50 (SNB-75) | GI50 (UACC-257) | GI50 (PC-3) | GI50 (SK-MEL-2) | GI50 (MDA-MB-435) | GI50 (A498) | GI50 (U-251) | GI50 (MOLT-4) | GI50 (Malme-3M) | GI50 (SF-295) | GI50 (SK-MEL-28)
CCCCCCCC/C=C\CCCCCCC(F)C(=O)O (centres undefined) | > 12.5 µM (inactive) | > 12.5 µM (inactive) | > 12.5 µM (inactive) | > 12.5 µM (inactive) | > 12.5 µM (inactive) | 2.25 µM (inactive) | > 12.5 µM (inactive) | > 12.5 µM (inactive) | > 12.5 µM (inactive) | > 12.5 µM (inactive) | > 12.5 µM (inactive) | > 12.5 µM (inactive) | > 12.5 µM (inactive) | > 12.5 µM (inactive) | > 12.5 µM (inactive) | > 12.5 µM (inactive) | > 12.5 µM (inactive) | > 12.5 µM (inactive) | > 12.5 µM (inactive) | > 12.5 µM (inactive)
C=C(C)CN(CC#N)CC(=C)C | > 100 µM (inactive) | > 100 µM (inactive) | > 100 µM (inactive) | > 100 µM (inactive) | > 100 µM (inactive) | > 100 µM (inactive) | > 100 µM (inactive) | > 100 µM (inactive) | – | > 100 µM (inactive) | > 100 µM (inactive) | > 100 µM (inactive) | > 100 µM (inactive) | > 100 µM (inactive) | > 100 µM (inactive) | > 100 µM (inactive) | > 100 µM (inactive) | > 100 µM (inactive) | > 100 µM (inactive) | > 100 µM (inactive)
CC(C)NCCC(O)c1cc2ccccc2o1 (centres undefined) | > 100 µM (inactive) | > 100 µM (inactive) | > 100 µM (inactive) | – | > 100 µM (inactive) | > 100 µM (inactive) | > 100 µM (inactive) | > 100 µM (inactive) | > 100 µM (inactive) | 7.67 µM (inactive) | > 100 µM (inactive) | > 100 µM (inactive) | > 100 µM (inactive) | > 100 µM (inactive) | > 100 µM (inactive) | > 100 µM (inactive) | 20.4 µM (inactive) | > 100 µM (inactive) | > 100 µM (inactive) | > 100 µM (inactive)
O=C(Nc1nc(C23CC4CC(CC(C4)C2)C3)cs1)c1c(O)c2ccccc2[nH]c1=O | 23.3 µM (inactive) | > 100 µM (inactive) | > 100 µM (inactive) | > 100 µM (inactive) | > 100 µM (inactive) | > 100 µM (inactive) | > 100 µM (inactive) | 78.9 µM (inactive) | > 100 µM (inactive) | > 10 µM (inactive) | > 100 µM (inactive) | > 100 µM (inactive) | – | > 100 µM (inactive) | > 100 µM (inactive) | > 100 µM (inactive) | > 100 µM (inactive) | > 100 µM (inactive) | > 100 µM (inactive) | > 100 µM (inactive)
COc1c(O)cc2c3c(ccnc13)NC=C2 | – | > 100 µM (inactive) | 26.7 µM (inactive) | 4.78 µM (inactive) | > 100 µM (inactive) | > 100 µM (inactive) | 1.63 µM (inactive) | 35.6 µM (inactive) | – | – | > 100 µM (inactive) | 24.3 µM (inactive) | 57.9 µM (inactive) | > 100 µM (inactive) | > 100 µM (inactive) | 80.2 µM (inactive) | 3.25 µM (inactive) | 85.7 µM (inactive) | > 100 µM (inactive) | > 100 µM (inactive)
C[C@]12CC[C@@H]3c4ccc(O)cc4CC[C@H]3[C@@H]1CC[C@@H]2OC(=O)CCc1ccccc1 | 17.8 µM (inactive) | 17.1 µM (inactive) | 17.5 µM (inactive) | 22.5 µM (inactive) | 19.6 µM (inactive) | 10.8 µM (inactive) | 15.3 µM (inactive) | 17.1 µM (inactive) | – | 15.1 µM (inactive) | 17.9 µM (inactive) | 18.3 µM (inactive) | 15.2 µM (inactive) | 13.1 µM (inactive) | 17.4 µM (inactive) | 18.7 µM (inactive) | 17 µM (inactive) | 17.6 µM (inactive) | 19.3 µM (inactive) | 20.1 µM (inactive)
C[N+](C)(C)CCN[N+]1(C)CCCc2ccccc21 (centres undefined) | > 100 µM (inactive) | > 100 µM (inactive) | > 100 µM (inactive) | – | 36.2 µM (inactive) | > 100 µM (inactive) | 18.5 µM (inactive) | > 100 µM (inactive) | 4.92 µM (inactive) | > 100 µM (inactive) | > 100 µM (inactive) | > 100 µM (inactive) | > 100 µM (inactive) | > 100 µM (inactive) | 17.7 µM (inactive) | 52.1 µM (inactive) | 31 µM (inactive) | 23 µM (inactive) | > 100 µM (inactive) | > 100 µM (inactive)
CCOC(=O)C1C(=O)CC(C)(O)C(C(=O)OCC)C1c1ccc(N(C)C)cc1 (centres undefined) | > 100 µM (inactive) | > 100 µM (inactive) | > 100 µM (inactive) | > 100 µM (inactive) | > 100 µM (inactive) | > 100 µM (inactive) | > 100 µM (inactive) | > 100 µM (inactive) | – | > 100 µM (inactive) | > 100 µM (inactive) | > 100 µM (inactive) | > 100 µM (inactive) | > 100 µM (inactive) | > 100 µM (inactive) | > 100 µM (inactive) | > 100 µM (inactive) | > 100 µM (inactive) | > 100 µM (inactive) | > 100 µM (inactive)
CC(C)(C)/C(=N\Nc1nc2ccccc2[nH]1)c1ccccn1 | > 100 µM (inactive) | 87.9 µM (inactive) | 24.9 µM (inactive) | 46.1 µM (inactive) | 33 µM (inactive) | – | 33.9 µM (inactive) | > 100 µM (inactive) | > 100 µM (inactive) | – | > 100 µM (inactive) | 81.5 µM (inactive) | > 100 µM (inactive) | > 100 µM (inactive) | > 100 µM (inactive) | > 100 µM (inactive) | 59.6 µM (inactive) | 9.18 µM (inactive) | – | > 100 µM (inactive)
CS(=O)(=O)CCC1CCC(=O)O1 (centres undefined) | 51.9 µM (inactive) | > 100 µM (inactive) | 58.9 µM (inactive) | > 10 µM (inactive) | – | > 100 µM (inactive) | 31.2 µM (inactive) | > 100 µM (inactive) | > 100 µM (inactive) | 97.9 µM (inactive) | > 100 µM (inactive) | > 100 µM (inactive) | – | > 100 µM (inactive) | > 100 µM (inactive) | > 100 µM (inactive) | 22 µM (inactive) | > 100 µM (inactive) | 92.9 µM (inactive) | > 100 µM (inactive)
COc1cccc(OCC(=N/NC(=O)c2ccncc2)/N=C/c2cccnc2)c1 | > 100 µM (inactive) | – | > 100 µM (inactive) | > 100 µM (inactive) | > 100 µM (inactive) | > 100 µM (inactive) | > 100 µM (inactive) | > 100 µM (inactive) | > 100 µM (inactive) | > 100 µM (inactive) | > 100 µM (inactive) | > 100 µM (inactive) | > 100 µM (inactive) | > 100 µM (inactive) | > 100 µM (inactive) | > 100 µM (inactive) | 49.7 µM (inactive) | > 100 µM (inactive) | > 100 µM (inactive) | > 100 µM (inactive)
Cc1cc(C)c2c(O)cc(-c3cccc(Cl)c3)nc2n1 | 1.05 µM (active) | 0.0518 µM (active) | 0.208 µM (active) | 0.229 µM (active) | 0.175 µM (active) | > 25 µM (inactive) | 0.0356 µM (active) | 0.256 µM (active) | 0.119 µM (active) | 0.166 µM (active) | 1.95 µM (inactive) | 0.0282 µM (active) | – | 0.0115 µM (active) | 0.514 µM (active) | 0.206 µM (active) | 0.161 µM (active) | 0.18 µM (active) | 0.0492 µM (active) | 5.09 µM (inactive)
Cc1nc2c(=S)n(C)ncc2[nH]1 | – | > 100 µM (inactive) | > 100 µM (inactive) | > 100 µM (inactive) | > 100 µM (inactive) | > 100 µM (inactive) | 34 µM (inactive) | > 100 µM (inactive) | > 100 µM (inactive) | > 100 µM (inactive) | > 100 µM (inactive) | > 100 µM (inactive) | > 100 µM (inactive) | > 100 µM (inactive) | > 100 µM (inactive) | > 100 µM (inactive) | > 100 µM (inactive) | 0.0133 µM (active) | > 100 µM (inactive) | > 100 µM (inactive)
CCC1(O)C(=O)OCc2c1cc1n(c2=O)Cc2cc3cc(N)ccc3nc2-1 (centres undefined) | < 0.01 µM (active) | < 0.0136 µM (active) | < 0.01 µM (active) | < 0.01 µM (active) | 0.366 µM (active) | 0.855 µM (active) | < 0.01 µM (active) | 0.516 µM (active) | < 0.01 µM (active) | < 0.01 µM (active) | – | 0.0702 µM (active) | 0.0964 µM (active) | 0.0241 µM (active) | 0.125 µM (active) | < 0.01 µM (active) | < 0.01 µM (active) | 0.0299 µM (active) | < 0.01 µM (active) | –
O=C(CN1C(=O)c2ccccc2C1=O)C(O)CN1C(=O)c2ccccc2C1=O (centres undefined) | 23.5 µM (inactive) | > 100 µM (inactive) | > 100 µM (inactive) | – | > 100 µM (inactive) | 76.2 µM (inactive) | > 100 µM (inactive) | 22.5 µM (inactive) | 33.2 µM (inactive) | 16 µM (inactive) | > 100 µM (inactive) | > 100 µM (inactive) | > 100 µM (inactive) | 34.1 µM (inactive) | 87.1 µM (inactive) | 29.1 µM (inactive) | > 100 µM (inactive) | – | 31.3 µM (inactive) | > 100 µM (inactive)
